Reference: patent publication US7919577B2, “Adrenocorticotropic hormone analogs and related methods” (Colorado Seminary, priority 2004, dated 2011)

Assays:
[1] = tested on: explanted mouse adrenal membrane (adrenal halves); test: in vitro Serum-free Adrenal Inhibition Assay (Example 4); assay type: cell-based; settings: for in vitro activity, % corticosterone induction relative to mACTH(1-24): FIG. 5, method of Example 4; for in vitro activity compared with in vivo activity of the same analog: FIG. 5, in vitro Example 4, in vivo Example 1
Experimental: A series of separate in vitro Serum-Free Adrenal Corticosteroid Inhibition Assay were performed to identify ACTH analogs that inhibit ACTH-induced adrenal hormone production in vitro. The concentration of corticosterone was measured according to the procedure of Example 4 in a serum-free culture medium containing explanted adrenal membrane and unmodified ACTH, AT814 ACTH analog (SEQ ID NO:20), or a combination of ACTH and AT814 at 100 ng/mL each. […] Corticosterone levels were taken at 2.0 hours after the adrenal membrane was placed in the serum free M199 medium, and each corticosterone level in Table 5 is an average of five samples.
The in vitro Serum-free Adrenal Inhibition Assay was performed according the following method. First, adrenals were removed from mice, dissected free of fat, and cut in half. See Costa, J L, et al., “Mutational analysis of evolutionarily conserved ACTH residues,” Gen Comp Endocrinol. 136:12-16 (2004); and Weber, M M, et al., “Postnatal overexpression of insulin-like growth factor II in transgenic mice is associated with adrenocortical hyperplasia and enhanced steroidogenesis,” Endocrinology 140:1537-1543 (1999), incorporated herein by reference.
Second, each adrenal half was placed into an individual well of a 4-well dish, one dish per mouse. Adrenal halves were incubated at 5% CO2, 37° C., in 0.5 ml serum-free medium (M199; Invitrogen) for 30 minutes to equilibrate.
Third, medium was removed and replaced by 0.5 ml M199 containing ACTH, AT814, or both, at 100 ng/ml each; controls had no peptides added.
Fourth, after 2 hours of incubation, the medium was removed, pooled for all four halves from each mouse, and assayed by corticosterone using standard RIA methods. corticosterone was determined by competitive radioimmunoassay (^125I RIA kit; ICN, Costa Mesa, Calif.) according to the manufacturer's recommendations. One microliter of serum was used per assay sample. Samples were run in duplicates.

[2] = tested on: dexamethasone-suppressed male FVB/N mice; test: in vivo Serum Corticosteroid Induction Assay (Example 1); set-up: species or system mouse; settings: for in vivo activity, % corticosterone induction relative to mACTH(1-24): FIG. 5, method of Example 1; for Percent reduction in serum corticosteroid: relative to unmodified mACTH(1-24), 1 μg subcutaneously to dexamethasone-suppressed mice, blood one hour later
Experimental: An in vivo Serum Corticosteroid Induction Assay measures the level of corticosteroid or corticosterone in the blood stream of a subject. More specifically, the in vivo Serum Corticosteroid Induction Assay can include the following steps: first, an agent to suppress endogenous ACTH production was administered to a mouse subject, such as an intraperitoneal injection of dexamethasone; second, after waiting a suitable period of time for suppression of endogenous ACTH production (e.g., 1.5-2.0 hours), a test compound can be administered to the mouse by a suitable method, such as intraperitoneal or subcutaneous injection; and third, after waiting a suitable period of time (e.g., 1 hour) for action of the injected test compound, a blood sample can be taken from the subject and the level of serum corticosterone can be determined by a suitable method, such as a competitive radioimmunoassay using ^125I RIA kit (ICN, Costa Mesa, Calif.). Example 1 describes a murine in vivo Serum Corticosteroid Induction Assay in detail.
The corticosteroid or corticosterone secretion induced in vivo by an ACTH analog compound was compared to the level of corticosteroid secretion produced by an unmodified ACTH compound by measuring blood serum corticosteroid after administering either the ACTH or ACTH analog as test compounds. […] ACTH analog compositions with decreased function were identified by measuring corticosterone levels using standard radioimmunoassay (RIA) analysis on blood samples collected one hour after administering the mACTH(1-24) or ACTH analog compound to dexamethasone-suppressed mice. In FIG. 1, the potency of various ACTH analog peptides is expressed as percent induction of corticosterone, with mouse ACTH being 100%. […] The percent of corticosterone induction 12 of ACTH analog Compounds in Samples 2-10 are shown as a percentage of the concentration of serum corticosterone 20 measured for unmodified mACTH(1-24) in the in vivo Serum Corticosteroid Adrenal Induction Assay. The structural modifications and measured percentage reduction in serum measured for Samples 2-10 in FIG. 1 are shown in Table 3 below.
The in vivo Serum Corticosteroid Induction Assay was performed according the following method. First, two to three month-old male FVB/N mice from our colony, five per group, were injected intraperitoneally with dexamethasone (0.4 mg/0.1 ml PBS per mouse; Sigma, St. Louis, Mo.) to suppress their endogenous ACTH production. See Hajos, G T et al., “Studies of the potency of polypeptides with ACTH action by a new method based on continuous measurement of plasma corticosterone,” Steroids Lipids Res 3:225-228 (1972), Costa, J L, et al., “Mutational analysis of evolutionarily conserved ACTH residues,” Gen Comp Endocrinol, 136:12-16 (2004), and Karpac, J, et al., “Development, Maintenance, and Function of the Adrenal Gland in Early Postnatal Pro-opiomelanocortin Null Mutant Mice,” Endocrinology (2005), published online ahead of print Feb. 24, 2005, all of which are incorporated herein by reference.
Second, ninety to one hundred twenty minutes later, the dexamethasone-suppressed mice were injected subcutaneously between the shoulder blades with either unmodified mACTH(1-24) or one of several ACTH analog peptide compounds (1 μg/0.1 mL PBS/0.5% BSA), or with vehicle alone (control) (0.1 mL PBS/0.5% BSA). The following ACTH analog peptide compounds were administered to separate mice: 1: murine ACTH1-24; 2: V26F,E30K; 3: P19W,K21E,Y23R; 4: E30K,P36R; 5: ALA19-24; 6: V26F,P36R; 7: P19W, K21E; 8: P19W,K21A,delY23; 9: P19W,K21A; 10: KRRP16-19RAAW (AT814) (SEQ ID NO:20).
Third, one hour later, blood was collected within less than 1 minute from a small incision in the tail, and serum was flash-frozen and stored at −80° C. until assayed. Serum corticosterone was determined by competitive radioimmunoassay (^125I RIA kit; ICN, Costa Mesa, Calif.) according to the manufacturer's recommendations. One microliter of serum was used per assay sample. […]

| Substance | in vitro activity, % corticosterone induction relative to mACTH(1-24) [1] | in vitro activity compared with in vivo activity of the same analog [1] | in vivo activity, % corticosterone induction relative to mACTH(1-24) [2] | Percent reduction in serum corticosteroid [2] [%] | in vivo activity, percent greater than the in vitro activity of unmodified mACTH ([2]; FIG. 5) | serum half life ([2]; inferred from in vivo versus in vitro activity, FIG. 5) |
| --- | --- | --- | --- | --- | --- | --- |
| (K16A, R17A)mACTH(1-24) [ACTH analog 420] | reduced | greater than its in vivo activity | reduced | – | – | – |
| (K15A, R17A)mACTH(1-24) [ACTH analog 410] | reduced | greater than its in vivo activity | reduced | – | – | – |
| (P19W, K21A, delY23)mACTH (SYSMEHFRWGKPVGKKRRWVAVPNVAENESAEAFPLEF; Corticotropin; UniProt P01193 124-162, looked up, variant P19W K21A Y23*) [Sample 8] | – | – | – | 76.0 | – | – |
| (PVKVYP19-24AAAAA)mACTH [Sample 5] | – | – | greater relative to both mACTH and to other ACTH analogs | 51 | about 50% | increased serum half life |
| (K16A, R18A)mACTH(1-24) [ACTH analog 430] | reduced | greater than its in vivo activity | reduced | – | – | – |
| (P19W, K21A)mACTH (SYSMEHFRWGKPVGKKRRWVAVYPNVAENESAEAFPLEF; Corticotropin residues 1-24; UniProt P01193 124-162, looked up, variant P19W K21A) [Sample 9] | reduced | greater than its in vivo activity | reduced | – | – | – |
| (K15Q, R17Q)mACTH(1-24) [ACTH analog 440] | reduced | greater than its in vivo activity | reduced | – | – | – |
